The values that follow come from patent US5616579A, “Anti-ulcer pyridyloxy derivatives, their preparation and uses” (Sankyo Company, Limited, priority 1992, dated 1997).

One experiment relates to guinea pig right atrium. The experiment can be described thus: Atrial Test in Guinea Pigs (inhibition of histamine-stimulated heart rate, isolated right atrium). To be noted: Cavia porcellus; test compound 1 μg/ml; 10^-5 M histamine; heart rate vs control. How it is done:
Atrial Test in Guinea Pigs
The guinea pig right atrium in a spontaneous palpitation was excised, suspended in 40 ml of Krebs-Henselite solution, and a tension of 1 g was loaded between the atrium preparation and a transducer. The solution was aerated at a fixed rate at 37° C. 10^-5 M histamine was added, and the heart rate was recorded as control. A test compound was added to a concentration of 1 μg/ml and then, after 3 minutes, 10^-5 M histamine was added, and the heart rate was again recorded. The inhibitory rate (R %) compared to the control group was calculated according to the following equation: […]
A: The heart rate of the control group
B: The heart rate of the group to which the drug was administered

The test system of another experiment is gastric acid output. Nature of the experiment: Inhibition of Gastric Secretions (Shay's method, pylorus-ligated rats). Format: in vivo, rat (male SD). To be noted: Rattus norvegicus, intraduodenal, 4 hours. How it is done:
Inhibition of Gastric Secretions
This test was carried out according to Shay's method [H. Shay: Gastroenterology 5, 43 (1945)] using male SD rats (5 weeks old). The rats were divided into groups, each group containing 5 rats. The animals were fasted for 24 hours before the beginning of the experiment. They were then anesthetized with ether, the abdominal region was opened, and the pylorus was ligated. A test compound suspended in a 0.5% w/v aqueous carboxymethylcellulose (CMC) solution was administered intraduodenally. After 4 hours, the rat was sacrificed by deep anesthesia with ether, and the stomach was excised. The gastric juice was removed, centrifuged for 15 minutes at 2500 rpm, and then 0.1 ml of the supernatant was taken out and titrated until the end point of neutralization with a 0.01N aqueous solution of sodium hydroxide, to determine the total gastric acidity. The amount of gastric acid secreted per hour (μEq/hr) was calculated, and the inhibition rate (R %) to the control group was calculated according to the following equation.
A: The gastric acid output of the control group (μEq/hr)
B: The amount of gastric acid output of the drug administered group (μEq/hr)

A further experiment deals with gastric mucosa. Nature of the experiment: HCl-Ethanol-Induced Ulcer Test in Rats. Format: in vivo, rat (male SD). The settings on record: dose 50 mg/kg, oral, 60 minutes before HCl-ethanol. How it is done: HCl-Ethanol-Induced Ulcer Test in Rats
Male SD rats (6 to 8 weeks old) were fasted for 24 hours before the beginning of the experiment. Each was then administered orally with 1 ml of a 60% ethanol solution containing 150 mM of hydrogen chloride. After 1 hour, the stomach was excised. Into the stomach was injected 10 ml of a 0.5% formaldehyde solution, and the stomach was fixed for 20 minutes. The injured area (mm^2) occuring on the surface of the gastric mucosa was measured, and the total injured area per rat was regarded as the injury index.
Test compounds and 0.5% CMC, as the control, were orally administered each at a dose of 0.1 ml/100 g, 60 minutes before treatment with the HCl-ethanol solution.
The ulcer formation inhibitory rate (R %) was calculated by the following equation.
A: The injury index of the control group (mm^2)
B: The injury index of the drug administered group (mm^2)

The inhibition is the relative decrease from the control value, in per cent. Low values mean a response near the control, high ones a response far below the control. In general, inhibition in vivo refers to the relative decrease from the control value, in per cent. In the experiment on guinea pig right atrium, `O=C(CSCCO)NCCCOc1cccc(CN2CCCCC2)c1` [Compound A, reference compound] registered an inhibition at 1 µg/mL of 68%. In the experiment with gastric acid output, the inhibition in vivo at 50 mg/kg was -67%. Also, the “% Inhibition (ulcer formation)” value in the experiment on gastric mucosa is 39%.
On to `O=C(CSCc1ccco1)NC/C=C\COc1cc(CN2CCCCC2)ccn1` [Compound B, reference compound], for which the inhibition at 1 µg/mL in the experiment with guinea pig right atrium turned out to be 99%. In the experiment on gastric acid output, the inhibition in vivo at 50 mg/kg is -40%. In addition, the “% Inhibition (ulcer formation)” value in the experiment with gastric mucosa was 97%.
On to `O=C(CSCCO)NC/C=C\COc1cc(CN2CCCCC2)ccn1` [Example 1, N-[4-(4-piperidinomethyl-2-pyridyloxy)-cis-2-butenyl]-2-(2-hydroxyethylthio)acetamide], for which, in the experiment on guinea pig right atrium, at 1 µg/mL the inhibition was 86%. In addition, the inhibition in vivo at 50 mg/kg in the experiment on gastric acid output was found to be 63%.
`CC(=O)OCCSCC(=O)NC/C=C\COc1cc(CN2CCCCC2)ccn1` [Example 2, N-[4-(4-Piperidinomethyl-2-pyridyloxy)-cis-2-butenyl]-2-(2-acetoxyethylthio)acetamide] registered an inhibition at 1 µg/mL in the experiment on guinea pig right atrium of 90%. In the experiment on gastric acid output, the inhibition in vivo at 50 mg/kg was found to be 52%. In addition, the “% Inhibition (ulcer formation)” value in the experiment with gastric mucosa was determined as 100%.
The compound `CC(=O)OCCSCCCC(=O)NC/C=C\COc1cc(CN2CCCCC2)ccn1` [Example 6, N-[4-(4-Piperidinomethyl-2-pyridyloxy)-cis-2-butenyl]-4-(2-acetoxyethylthio)butyramide] showed an inhibition at 1 µg/mL in the experiment on guinea pig right atrium of 86%. Moreover, the inhibition in vivo at 50 mg/kg with gastric acid output was 73%.
On to `CCC(=O)OCCSCC(=O)NC/C=C\COc1cc(CN2CCCCC2)ccn1` [Example 7, N-[4-(4-Piperidinomethyl-2-pyridyloxy)-cis-2-butenyl]-2-(2-propionyloxyethylthio)acetamide], for which, in the experiment on gastric acid output, the inhibition in vivo at 12.5 mg/kg was found to be 51% and the inhibition in vivo at 25 mg/kg was found to be 63%. Moreover, the “% Inhibition (ulcer formation)” value with gastric mucosa worked out at 61%.
Take `O=C(NC/C=C\COc1cc(CN2CCCCC2)ccn1)c1cn[nH]c1` [Example 13, N-[4-(4-piperidinomethyl-2-pyridyloxy)-cis-2-butenyl]pyrazole-4-carboxamide]: testing at 1 µg/mL with guinea pig right atrium gave an inhibition of 84%. Further, in the experiment with gastric acid output, the inhibition in vivo at 25 mg/kg was 62% and the inhibition in vivo at 50 mg/kg came out at 80%. In addition, in the experiment with gastric mucosa, the “% Inhibition (ulcer formation)” value is recorded as 87%.
In the experiment with guinea pig right atrium, `Nc1n[nH]cc1C(=O)NC/C=C\COc1cc(CN2CCCCC2)ccn1` [Example 17, 3-Amino-N-[4-(4-piperidinomethyl-2-pyridyloxy) -cis-2-butenyl]pyrazole-4-carboxamide] yielded an inhibition at 1 µg/mL of 83%. Moreover, in the experiment with gastric acid output, the inhibition in vivo at 25 mg/kg came out at 73% and the inhibition in vivo at 50 mg/kg was found to be 71%.
`O=C(NC/C=C\COc1cc(CN2CCCCC2)ccn1)c1cscn1` [Example 26, N-[4-(4-Piperidinomethyl-2-pyridyloxy) -cis-2-butenyl]thiazole-4-carboxamide]: the inhibition at 1 µg/mL in the experiment with guinea pig right atrium came to 80%.
In the case of `O=C(CCCSc1ncccn1)NC/C=C\COc1cc(CN2CCCCC2)ccn1` [Example 34, N-[4-(4-Piperidinomethyl-2-pyridyloxy) -cis-2-butenyl]-4-(2-pyrimidinylthio) butyramide], in the experiment on guinea pig right atrium, at 1 µg/mL the inhibition was 94%. Also, in the experiment with gastric acid output, the inhibition in vivo at 12.5 mg/kg was 61% and the inhibition in vivo at 25 mg/kg was found to be 86%. Also, the “% Inhibition (ulcer formation)” value with gastric mucosa was determined as 79%.
With `Cc1nnc(SCCCC(=O)NC/C=C\COc2cc(CN3CCCCC3)ccn2)o1` [Example 37, N-[4-(4-Piperidinomethyl-2-pyridyloxy)-cis-2-butenyl]-4-(5-methyl-1,3,4-oxadiazol-2-ylthio)butyramide], in the experiment on guinea pig right atrium, 1 µg/mL produced 99% inhibition. The inhibition in vivo at 50 mg/kg with gastric acid output was determined as 74%.
For `O=C(CCCSc1nc[nH]n1)NC/C=C\COc1cc(CN2CCCCC2)ccn1` [Example 41, N-[4-(4-Piperidinomethyl-2-pyridyloxy)-cis-2-butenyl]-4-(1,2,4-triazol-3-ylthio)butyramide], in the experiment on guinea pig right atrium, the inhibition at 1 µg/mL amounted to 85%. For the same compound, in the experiment on gastric acid output, the inhibition in vivo at 25 mg/kg came to 61% and the inhibition in vivo at 50 mg/kg amounted to 76%.
In turn, `CC(C)NC(=O)NC/C=C\COc1cc(CN2CCCCC2)ccn1` [Example 48, N-[4-(4-piperidinomethyl-2-pyridyloxy) -cis-2-butenyl]-N'-isopropylurea] had an inhibition at 1 µg/mL with guinea pig right atrium of 81%. Besides, in the experiment on gastric acid output, the inhibition in vivo at 50 mg/kg worked out at 71%. Also, the “% Inhibition (ulcer formation)” value with gastric mucosa was 78%.
As for `O=C(NC/C=C\COc1cc(CN2CCCCC2)ccn1)NC1CCC1` [Example 58, N-Cyclobutyl-N'-[4-(4-piperidinomethyl-2-pyridyloxy) -cis-2-butenyl]urea], the inhibition in vivo at 50 mg/kg in the experiment with gastric acid output came to 56%.
